Data on two compounds can be found in US20240147998A1, “HERBICIDAL COMPOSITIONS COMPRISING IMIDAZOLINONE-BASED ACETOLACTATE SYNTHASE INHIBITORS AND USES THEREOF” (Adama Agan Ltd., priority 2021, published 2024).

Where two headings read alike, the source gives them in different places.

How the values of data set [1] were obtained:
A formulation comprising imazapic, benzyl alcohol and Tween-20 as detailed in Table 1 was prepared by (i) adding benzyl alcohol to a reactor; adding Tween-20 while mixing; (iii) gradually adding imazapic and continue mixing until the solution obtained is clear; (iv) discharging said solution from the reactor; and (v) filtering the solution using a 5 μm filter.

The conditions of data set [2]: 20° C.; cited from earlier work.
The conditions of data set [3]: 20° C., cited from earlier work.

Regarding `Cc1cnc(C2=NC(=O)C(C)(C(C)C)N2)c(C(=O)O)c1` (stereo not drawn) [imazapic], the “solubility in organic solvents suitable for agricultural applications” value in data set [1] was “dissolve”.

Take `CC(C)N(C)S(=O)(=O)NC(=O)c1cc(-n2c(=O)cc(C(F)(F)F)n(C)c2=O)c(F)cc1Cl` [saflufenacil, 2-chloro-5-[3,6-dihydro-3-methyl-2,6-dioxo-4-(trifluoromethyl)-1-(2H)pyrimidinyl]-4-fluoro-N-[[methyl(1-methylethyl)amino]sulfonyl]benzamide]: in data set [2], the “solubility in isopropyl alcohol” value was 0.25 g/100 mL, the solubility in methanol is reported as 2.98 g/100 mL and the solubility in octanol is < 0.01 g/100 mL. Moreover, the solubility in water in data set [3] (pH 5) is 0.0025 g/100 mL. Besides, the solubility in water in data set [3] (pH 7) is 0.21 g/100 mL.
